Experimental data published in patent publication US20250230193A1, “CYCLIC COMPOUND HAVING SELECTIVE KRAS INHIBITORY EFFECT ON HRAS AND NRAS” (CHUGAI SEIYAKU KABUSHIKI KAISHA, priority 2022, published 2025).
Where a SMILES comes first, the peptide text is derived from it. Bridges are numbered along the chain shown (N, C = ends). [ ]: non-standard residue; d: D form. The star is where a group is joined. hPhe(3,5-F2-4-CF3) = N[C@@H](CCc1cc(F)c(C(F)(F)F)c(F)c1)C(=O)O; hPhe(3-Cl-4-CF3) = N[C@@H](CCc1ccc(C(F)(F)F)c(Cl)c1)C(=O)O; NPrPhe(4-CF3) = CCCN[C@@H](Cc1ccc(C(F)(F)F)cc1)C(=O)O; NMeGly(cPent) = CN[C@H](C(=O)O)C1CCCC1; Pro(4,4-F2) = O=C(O)[C@@H]1CC(F)(F)CN1; NMeGly(cBu) = CN[C@H](C(=O)O)C1CCC1; NMeD = CN[C@@H](CC(=O)O)C(=O)O; NMeL = CN[C@@H](CC(C)C)C(=O)O; Iva = CC[C@](C)(N)C(=O)O; Morpholide = C1CN(*)CCO1; NMeA = CN[C@@H](C)C(=O)O; Ac5c = NC1(C(=O)O)CCCC1; Aze = O=C(O)[C@@H]1CCN1; Sar = CNCC(=O)O

Tests used:
[1] = target: GDP-bound HRAS wild-type protein (Homo sapiens, UniProt P01112); assay: Binding to HRAS by surface plasmon resonance (SPR), Single Cycle Kinetics
[2] = target: GDP-bound NRAS wild-type protein (Homo sapiens, UniProt P01111); assay: Binding to NRAS by surface plasmon resonance (SPR), Single Cycle Kinetics
[3] = KD ratio HRAS/KRAS, class symbols
[4] = KD ratio NRAS/KRAS, class symbols

Chain of GDP-bound HRAS wild-type protein (P01112 whole entry): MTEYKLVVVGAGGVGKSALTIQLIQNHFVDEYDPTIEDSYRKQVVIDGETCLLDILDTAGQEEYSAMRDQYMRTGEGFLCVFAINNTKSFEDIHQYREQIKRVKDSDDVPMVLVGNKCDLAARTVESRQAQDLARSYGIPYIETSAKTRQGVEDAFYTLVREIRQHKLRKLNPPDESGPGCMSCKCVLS
Chain of GDP-bound NRAS wild-type protein (P01111 whole entry): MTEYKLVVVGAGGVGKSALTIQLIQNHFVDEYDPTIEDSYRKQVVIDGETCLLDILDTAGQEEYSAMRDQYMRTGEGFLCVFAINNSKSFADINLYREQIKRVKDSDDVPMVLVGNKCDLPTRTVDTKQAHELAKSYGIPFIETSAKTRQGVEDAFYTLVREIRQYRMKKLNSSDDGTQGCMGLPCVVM

## CCC(CC)[C@H]1C(=O)N(C)[C@H](C(=O)N(C)C)CC(=O)N(C)[C@@H](COC)C(=O)N[C@@H]([C@@H](C)CC)C(=O)N(C)CC(=O)N(C)[C@H]2C/C=C\CCN(C2=O)[C@@H](Cc2ccc(C(F)(F)F)cc2)C(=O)N(C)CC(=O)N[C@@H](CCc2cc(F)c(C(F)(F)F)c(F)c2)C(=O)N2CC[C@H]2C(=O)NC2(CC(C)(C)C2)C(=O)N1C [PP2918]
[1]; [3]
  HRAS/KRAS (ratio of KD value with respect to GDP-bound HRAS wild-type protein to KD value with respect to KRAS): A (a compound having 10 or more and less than 20 is denoted as A)
[2]; [4]
  NRAS/KRAS (ratio of KD value with respect to GDP-bound NRAS wild-type protein to KD value with respect to KRAS): AA (a compound having 20 or more is denoted as AA)

## CCCN1C(=O)[C@@H]2CCN2C(=O)CN(C)C(=O)[C@H]([C@@H](C)CC)NC(=O)[C@H](CC(C)C)N(C)C(=O)C[C@@H](C(=O)N2CCOCC2)N(C)C(=O)[C@H](C2CCCC2)N(C)C(=O)[C@](C)(CC)NC(=O)[C@@H]2CCCN2C(=O)[C@H](CCc2cc(F)c(C(F)(F)F)c(F)c2)NC(=O)CN(C)C(=O)[C@@H]1Cc1ccc(C(F)(F)F)cc1 [PP0790] ([NMeL]I[Sar][Aze][NPrPhe(4-CF3)][Sar][hPhe(3,5-F2-4-CF3)]P[Iva][NMeGly(cPent)][NMeD]-Morpholide; lactam N-11)
[1]; KD ratio HRAS/KRAS, SPR
  HRAS/KRAS (ratio of KD value with respect to GDP-bound HRAS wild-type protein to KD value with respect to KRAS): B (a compound having 3 or more and less than 10 is denoted as B)
[2]; KD ratio NRAS/KRAS, SPR
  NRAS/KRAS (ratio of KD value with respect to GDP-bound NRAS wild-type protein to KD value with respect to KRAS): C (A compound having a KD ratio of 0.1 or more and less than 3 is denoted as C)

## CCO[C@@H]1C[C@H]2C(=O)NC3(CC(F)(F)C3)C(=O)N(C)[C@@H](C3CCCC3)C(=O)N3CCC[C@@H]3CC(=O)N(C)[C@@H](CC3CC3)C(=O)N[C@@H]([C@@H](C)CC)C(=O)N(C)CC(=O)N(C)[C@H]3C/C=C\CCN(C3=O)[C@@H](Cc3ccc(C(F)(F)F)cc3)C(=O)N(C)CC(=O)N[C@@H](CCc3cc(F)c(C(F)(F)F)c(F)c3)C(=O)N2C1 [PP1615]
[1]; KD ratio, GDP-bound HRAS wild-type vs GDP-bound KRAS wild-type, SPR
  HRAS/KRAS (ratio of KD value for HRAS to KD value for KRAS): B (a compound having 3 or more and less than 10 is denoted as B)
[2]; KD ratio, GDP-bound NRAS wild-type vs GDP-bound KRAS wild-type, SPR
  NRAS/KRAS (ratio of KD value for NRAS to KD value for KRAS): B (a compound having 3 or more and less than 10 is denoted as B)

## CCC[C@H]1C(=O)N[C@@H]([C@@H](C)CC)C(=O)N2C[C@@H](OC)C[C@H]2C(=O)N(C)[C@H]2C/C=C\CCN(C2=O)[C@@H](Cc2ccc(C)cc2)C(=O)N(C)CC(=O)N[C@@H](CCc2cc(F)c(C(F)(F)F)c(F)c2)C(=O)N2C[C@H](OCC)C[C@H]2C(=O)NC2(CC(C)(C)C2)C(=O)N(C)[C@@H](C2CCCC2)C(=O)N(C)[C@H](C(=O)N(C)C)CC(=O)N1C [PP2556]
[1]; [3]
  HRAS/KRAS (ratio of KD value with respect to GDP-bound HRAS wild-type protein to KD value with respect to KRAS): B (a compound having 3 or more and less than 10 is denoted as B)
[2]; [4]
  NRAS/KRAS (ratio of KD value with respect to GDP-bound NRAS wild-type protein to KD value with respect to KRAS): A (a compound having 10 or more and less than 20 is denoted as A)

## CCO[C@@H]1C[C@H]2C(=O)NC3(CC(C)(C)C3)C(=O)N(C)[C@@H](CC3CCC3)C(=O)N(C)[C@H](C(=O)N(C)C)CC(=O)N(C)[C@@H](COC)C(=O)N[C@@H]([C@@H](C)CC)C(=O)N(C3CC3)CC(=O)N(C)[C@H]3C/C=C\CCN(C3=O)[C@@H](Cc3ccc(C(F)(F)F)cc3)C(=O)N(C)CC(=O)N[C@@H](CCc3ccc(C(F)(F)F)c(OC)c3)C(=O)N2C1 [PP2771]
[1]; [3]
  HRAS/KRAS (ratio of KD value with respect to GDP-bound HRAS wild-type protein to KD value with respect to KRAS): A (a compound having 10 or more and less than 20 is denoted as A)
[2]; [4]
  NRAS/KRAS (ratio of KD value with respect to GDP-bound NRAS wild-type protein to KD value with respect to KRAS): AA (a compound having 20 or more is denoted as AA)

## CCCOC[C@H]1C(=O)N[C@@H]([C@@H](C)CC)C(=O)N(C2CC2)CC(=O)N(C)[C@H]2C/C=C\CCN(C2=O)[C@@H](CC2CCC(F)(F)CC2)C(=O)N(C)CC(=O)N[C@@H](CCc2ccc(C(F)(F)F)c(OC)c2)C(=O)N2C[C@H](OCC)C[C@H]2C(=O)N(C)C2(CCC2)C(=O)N(C)[C@@H](C2CCCC2)C(=O)N(C)[C@H](C(=O)N(C)C)CC(=O)N1C [PP2354]
[1]; SPR, GDP-bound HRAS wild-type vs GDP-bound KRAS wild-type
  HRAS/KRAS (ratio of KD value with respect to HRAS to KD value with respect to KRAS): A (a compound having 10 or more and less than 20 is denoted as A)
[2]; SPR, GDP-bound NRAS wild-type vs GDP-bound KRAS wild-type
  NRAS/KRAS (ratio of KD value with respect to NRAS to KD value with respect to KRAS): A (a compound having 10 or more and less than 20 is denoted as A)

## CCCN1C(=O)[C@@H]2CCN2C(=O)[C@H](C)N(C)C(=O)[C@H]([C@@H](C)CC)NC(=O)[C@H](C2CCC2)N(C)C(=O)C[C@@H](C(=O)N2CCOCC2)N(C)C(=O)[C@H](C2CCCC2)N(C)C(=O)C2(CCCC2)NC(=O)[C@@H]2CC(F)(F)CN2C(=O)[C@H](CCc2ccc(C(F)(F)F)c(Cl)c2)NC(=O)CN(C)C(=O)[C@@H]1Cc1ccc(C(F)(F)F)cc1 [PP0204] ([NMeGly(cBu)]I[NMeA][Aze][NPrPhe(4-CF3)][Sar][hPhe(3-Cl-4-CF3)][Pro(4,4-F2)][Ac5c][NMeGly(cPent)][NMeD]-Morpholide; lactam N-11)
[1]; KD ratio HRAS/KRAS, SPR
  HRAS/KRAS (ratio of KD for GDP-bound HRAS wild-type to KD for KRAS): C (A compound having a KD ratio of 0.1 or more and less than 3 is denoted as C)
[2]; KD ratio NRAS/KRAS, SPR
  NRAS/KRAS (ratio of KD for GDP-bound NRAS wild-type to KD for KRAS): C (A compound having a KD ratio of 0.1 or more and less than 3 is denoted as C)
